Source: PMC9743128, “Phenotype-based screening rediscovered benzopyran-embedded microtubule inhibitors as anti-neuroinflammatory agents by modulating the tubulin–p65 interaction” (Experimental & Molecular Medicine, 2022)

Assays:
[1] = system: α-tubulin monomers in RAW264.7 cells; assay: Tubulin monomer/polymer isolation and western blot; assay type: cell-based, murine; conditions: 10 μM for 6 h
Method: To separate soluble tubulin monomers from insoluble tubulin polymers, cells were washed very gently with PBS and incubated for 10 min at room temperature with a microtubule-stabilizing buffer {10% Tris–HCl (pH 6.8) (Acros; #77-86-1), 10% glycerol (Biosesang; GR1018-500-00), 1 mM EGTA (Sigma; E3889), 1 mM MgSO4 (Sigma; M2773), 0.1 mM EDTA (Acros; #409971000), and 1× protease inhibitor cocktail} containing additional 0.1% Triton X-100 (Sigma; T8787). The remaining insoluble tubulin polymers on the culture dish were scraped with microtubule-stabilizing buffer containing an additional 0.5% SDS (Sigma; L3771).

[2] = target: T1, p65–α-tubulin interaction (Mus musculus, UniProt P05213+P99024); assay: Immunoprecipitation of p65, IκB and α-tubulin; assay type: cell-based, murine; conditions: 1 h treatment, 10 μM
T1 construct: endogenous in cells
T1 sequence (P05213 whole entry): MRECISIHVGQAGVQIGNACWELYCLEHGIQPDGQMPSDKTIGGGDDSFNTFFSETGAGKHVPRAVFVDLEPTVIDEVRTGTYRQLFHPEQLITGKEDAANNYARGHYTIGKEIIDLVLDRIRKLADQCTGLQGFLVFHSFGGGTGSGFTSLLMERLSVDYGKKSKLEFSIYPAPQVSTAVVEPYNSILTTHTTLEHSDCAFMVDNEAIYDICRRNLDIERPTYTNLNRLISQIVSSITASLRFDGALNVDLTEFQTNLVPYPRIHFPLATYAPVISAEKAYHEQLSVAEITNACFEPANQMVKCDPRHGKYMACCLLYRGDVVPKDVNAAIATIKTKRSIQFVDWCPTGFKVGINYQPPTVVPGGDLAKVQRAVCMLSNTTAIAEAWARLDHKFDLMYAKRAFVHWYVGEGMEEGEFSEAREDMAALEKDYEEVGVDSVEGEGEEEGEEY
T1 sequence (P99024 whole entry): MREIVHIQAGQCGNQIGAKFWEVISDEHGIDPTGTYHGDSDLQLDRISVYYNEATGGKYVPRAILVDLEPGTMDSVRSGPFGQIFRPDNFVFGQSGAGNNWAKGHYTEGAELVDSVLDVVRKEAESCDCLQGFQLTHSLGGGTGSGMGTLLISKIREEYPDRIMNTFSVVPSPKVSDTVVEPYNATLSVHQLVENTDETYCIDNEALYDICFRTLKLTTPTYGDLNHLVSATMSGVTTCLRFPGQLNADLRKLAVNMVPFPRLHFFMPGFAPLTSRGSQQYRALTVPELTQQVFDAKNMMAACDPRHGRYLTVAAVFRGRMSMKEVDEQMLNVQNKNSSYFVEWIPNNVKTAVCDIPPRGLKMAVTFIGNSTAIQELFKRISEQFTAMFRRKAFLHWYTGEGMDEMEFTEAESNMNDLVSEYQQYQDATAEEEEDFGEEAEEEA
Method: After a 1-h incubation in the absence or presence of SB26019, cells were harvested and lysed for 1 h on ice with IP lysis buffer {50 mM Tris–HCl pH 8.0 (Acros; #77-86-1), 200 mM NaCl, 0.5% NP40 (Sigma; #I8896), and 1× protease inhibitor cocktail (Roche; #11873580001)}. The protein concentration was measured using a bicinchoninic acid (BCA) protein assay kit (Thermo; #23225). Then, 150 μg of the lysates were incubated with 1.5 μg of anti-p65 antibody (Abcam; ab16502), anti-IκB antibody (CST; #4814), or α-tubulin antibody (CST; #3873) at 4 °C overnight. Subsequently, the proteins of interest were precipitated using protein A and G beads (Santa Cruz; sc-2001, sc-2002). Samples were analyzed with western blotting using anti-p65, IκB, and α-tubulin primary antibodies.
To understand the inhibitory mechanism of p65 nuclear translocation by SB26019, the expression levels of p65, IκB, and tubulin monomers were monitored upon SB26019 treatment in murine macrophage cells. […] Additionally, nuclear translocation of p65 was inhibited by SB26019 treatment despite an increase in phospho-IκB and a decrease in total IκB (Fig. 3e). […] Consequently, IκB is released from p65 and degraded by the proteasome. […] To test this hypothesis, we monitored protein‒protein interactions among p65, IκB, and tubulin with immunoprecipitation. […]

[3] = system: NF-κB signaling pathway in BV-2 microglial cells; assay: qPCR of NF-κB downstream genes after LPS; assay type: cell-based, murine; conditions: BV-2 cells, dose-dependent
Method: After cell lysis with RLT buffer (Qiagen), RNA was extracted using the RNAeasy PLUS Mini Kit (Qiagen; #74136). The resulting cDNA was generated using the AccuPower CycleScript RT PreMix (dT20) kit (Bioneer; K2044) on a C1000 Touch Thermal Cycler (Bio-Rad; #1841000). qPCR was performed using a KAPA SYBR® FAST qPCR Master Mix (2×) Universal Kit (Kapa; KK4605) on a StepOne Real-Time PCR system (Applied Biosystems; #4376357). The cycling threshold value of the endogenous control gene GAPDH was subtracted from the cycling threshold value of each target gene to calculate the shift in cycling threshold (ΔCT). […] The primer sequence information for this analysis is shown in Supplementary Table 3.
NF-κB is a central mediator that induces proinflammatory cytokines, including TNF-α, IL-1β, IL-6, and chemokines. […] The expression level of the proinflammatory cytokine TNF-α was also monitored with SB26019 treatment.
Fig. 2 SB26019 has anti-inflammatory activity via the accumulation of tubulin monomers. […]

IκB in J774A.1 cells = assay: Western blot of IκB; assay type: cell-based; conditions: murine macrophage cells; inhibited by MG132 pretreatment
Method: The proteome was analyzed by SDS‒PAGE and transferred to PVDF membranes (Bio-Rad; BR162-0177). The membranes were blocked with 2% BSA in Tris-buffered saline containing 0.1% Tween-20 (TBST) for 1 h. To detect the desired proteins, the membranes were incubated overnight at 4 °C with the primary antibodies—1:1000 dilution of α-tubulin (CST; #3873), β-tubulin (CST; #2146), IκB (CST; #4814), caspase-1 (CST; #24232), cleaved caspase-1 (CST; #89332), IL-1β (CST; #31202), cleaved IL-1β (CST; #63124), acetylated α-tubulin (CST; #5335), p65 (Abcam; ab16502), FLAG (Abcam; ab49763); and 1:2,000 dilution of GAPDH (CST; #2118), β-actin (CST; #4970), and LMNB1 (Abcam; ab16048). After washing with TBST, the resulting membranes were exposed to HRP-conjugated secondary antibody—1:5000 dilution of anti-rabbit (CST; #7074) and anti-mouse (CST; #7076)—for 1 h at room temperature. After washing with TBST, the membranes were incubated with an enhanced chemiluminescence (ECL) prime kit (Cytiva; RPN2232). Chemiluminescent signals from the desired proteins were detected using ChemiDoc. […]
To understand the inhibitory mechanism of p65 nuclear translocation by SB26019, the expression levels of p65, IκB, and tubulin monomers were monitored upon SB26019 treatment in murine macrophage cells. […] To test this hypothesis, we monitored protein‒protein interactions among p65, IκB, and tubulin with immunoprecipitation. […]

COc1ccc2c(c1O)OC(C)(C)C=C2c1cccc2c1oc1ccccc12 [Compound 8]
Total α-tubulin monomers [1]: increased the total α-tubulin monomers
Interaction between p65 and α-tubulin [2]: increased
mRNA of inflammatory marker genes (Ccl2, Cxcl10, Il-1β, Il-6, Nos2, Tnf) [3]: suppressed the production of inflammatory marker genes
IκB degradation (IκB in J774A.1 cells): induced IκB degradation in a time- and dose-dependent manner
